Results: patent US20230072392A1, “NASAL SPRAY” (BREATHE BETTER LLC, priority 2021, published 2023)

Assays:
individuals [1] = test: Long-term nasal use: rebound effect (rebound congestion); assay type: in vivo, human; conditions: oxymetazoline or salts at less than 0.050%, preferably 0.025%
Source text: In an embodiment of the nasal spray composition, the nasal spray composition may include effective amounts of a decongestant or vasoconstrictor, such as oxymetazoline, or pharmaceutical acceptable salts thereof, such as oxymetazoline hydrochloride. In an illustrative embodiment, the effective amount of oxymetazoline or pharmaceutical acceptable salts thereof, is less than 0.050%, between less than 0.050% and 0.010%, and more preferably, 0.025% or about 0.025%. Oxymetazoline, a member of the imidazole group, binds and activates alpha-2 adrenergic receptors. Upon nasal administration, imidazole group compounds constrict the arterioles in the nose, resulting in decreasing congestion. Concentrations of oxymetazoline (0.050%) utilized in the over-the-counter sprays have been proven to return symptoms to a degree stronger than present initially upon discontinuation of the drug. This is called the rebound effect, or rebound congestion (rhinitis medicamentosa, chemical rhinitis, or nasal spray addiction). The rebound effect may occur in as early as 3 days of use, but typically occurs in 3-5 days and sometimes 5-7 days of use. […] As such, the nasal spray according to the present invention can be used for a time period greater than 5-7 days without the risk of suffering from any rebound effect. […]

individuals [2] = conditions: oxymetazoline 0.050% in over-the-counter sprays, days of use; cited from earlier work

SMILES: Cc1cc(C(C)(C)C)c(O)c(C)c1CC1=NCCN1 [oxymetazoline]
- effect on snoring or sleep apnea and rebound effect (individuals [1]): effective at reducing or minimizing snoring or sleep apnea while preventing the rebound effect
- rebound effect: earliest onset (may occur in as early as) (individuals [2]): 3 days
- rebound effect: onset sometimes (individuals [2]): 5 to 7 days
- rebound effect: typical onset (individuals [2]): 3 to 5 days
